Measured values published in US20230129721A1, “STABILIZER FOR RADIOPHARMACEUTICALS AND RADIOPHARMACEUTICAL COMPOSITION COMPRISING THE SAME” (THE ASAN FOUNDATION, priority 2020, published 2023).

Experiments:
[1] = Radiochemical purity of [^18F]PI-2620 radiopharmaceutical composition over time at 40° C. by HPLC; assay type: physicochemical
Method: Fluoride ([^18F]) and 2 mg of a precursor were dissolved in dimethyl sulfoxide, and the reaction mixture was fluorinated using an SN2 reaction at a temperature of 100° C. or higher. Then, a protecting group was hydrolyzed with sulfuric acid, and the mixture was neutralized with sodium hydroxide, purified using high-performance liquid chromatography (HPLC) (purification conditions: Luna C18 250×10 mm, phosphate buffer:acetonitrile=70:30 (v/v), 5.0 mL/min, UV=254 nm), and then formulated (formulation composition: 100 mg of sodium ascorbate, 2 nM phosphate buffer, and 10% ethanol) to obtain the [^18F]PI-2620 compound having a radiochemical purity of 100% (FIG. 1).
[^18F]PI-2620 was formulated with ethanol, ascorbic acid, and a phosphate buffer, and the radiochemical purity of the radiopharmaceutical composition was then measured at the elapsed times of 0 hour, 2 hours, 4 hours, and 6 hours at a temperature of 40° C. using HPLC (analysis conditions: Luna C18 250×4.6 mm, phosphate buffer:acetonitrile=60:40 (v/v), 1.0 mL/min, UV=254 nm).
[^18F]PI-2620 was obtained as a compound having a radiochemical purity of 100% in the same manner as in Example 1. To further confirm the stability of the compound, 2 equivalents of sodium ascorbate used in Example 1 was added during a formulation process (formulation composition: 200 mg of sodium ascorbate, a 2 nM phosphate buffer, and 10% ethanol), and the radiochemical purity of the radiopharmaceutical composition was then measured in the same manner as in Example 1 at the elapsed times of 0 hour, 2 hours, 4 hours, and 6 hours at a temperature of 40° C. using high-performance liquid chromatography (HPLC)
[^18F]PI-2620 was obtained as a compound having a radiochemical purity of 100% in the same manner as in Example 1. To check the causes of a decrease in radiochemical purity, the radiochemical purity of the radiopharmaceutical composition was then measured in the same manner as in Example 1 at the elapsed times of 0 hour, 2 hours, 4 hours, and 6 hours at a temperature of 40° C. under three formulation conditions (Condition 1: ethanol and water for injection (formulation composition: 10% ethanol); Condition 2: ethanol and a phosphate buffer (formulation composition: a 2 nM phosphate buffer and 10% ethanol); Condition 3: ethanol and a 2×phosphate buffer (formulation composition: a 4 nM phosphate buffer and 10% ethanol)) using high-performance liquid chromatography (HPLC).
[^18F]PI-2620 was obtained as a compound having a radiochemical purity of 98% or more in the same manner as in Example 1. As a novel stabilizing agent, vitamin B1 (VB1), vitamin B6 (VB6), vitamin B8 (VB8), vitamin B10 (VB10), or vitamin B12 (VB12) (formulation composition: 10% ethanol and a 50 mg/mL vitamin concentration) was added to ethanol and water for injection, and the radiochemical purity of the radiopharmaceutical composition was measured in the same manner as in Example 1 at the elapsed times of 0 hour, 2 hours, 4 hours, and 6 hours at a temperature of 40° C. using high-performance liquid chromatography (HPLC). A preparation including no vitamin B was used as the control.
[^18F]PI-2620 was obtained as a compound having a radiochemical purity of 98% or more in the same manner as in Example 1, and formulated with ethanol and a phosphate buffer (formulation composition: a 2 nM phosphate buffer and 10% ethanol). As a novel stabilizing agent, vitamin B1 (VB1), vitamin B6 (VB6), vitamin B8 (VB8), or vitamin B10 (VB10) was added at a concentration of 50 mg/mL, and the radiochemical purity of the radiopharmaceutical composition was measured in the same manner as in Example 1 at the elapsed times of 0 hour, 2 hours, 4 hours, and 6 hours at a temperature of 40° C. using high-performance liquid chromatography (HPLC). A preparation in which sodium ascorbate was added to the same concentrations of ethanol and phosphate buffer was used as the control. […]

[2] = pH (paper) of [^18F]PI-2620 radiopharmaceutical composition over time at 40° C.; assay type: physicochemical
[3] = [^18F]PI-2620, ethanol and water for injection (10% ethanol), 50 mg/mL vitamin, no phosphate buffer, 0 hr
[4] = [^18F]PI-2620, ethanol and water for injection (10% ethanol), 50 mg/mL vitamin, no phosphate buffer, 2 hr
[5] = [^18F]PI-2620, ethanol and water for injection (10% ethanol), 50 mg/mL vitamin, no phosphate buffer, 4 hr
[6] = [^18F]PI-2620, ethanol and water for injection (10% ethanol), 50 mg/mL vitamin, no phosphate buffer, 6 hr
[7] = 10% ethanol, water for injection, 50 mg/mL vitamin, 0 hr
[8] = 10% ethanol, water for injection, 50 mg/mL vitamin, 2 hr
[9] = 10% ethanol, water for injection, 50 mg/mL vitamin, 4 hr
[10] = 10% ethanol, water for injection, 50 mg/mL vitamin, 6 hr
[11] = [^18F]PI-2620, 2 nM phosphate buffer and 10% ethanol, vitamin 50 mg/mL (control: sodium ascorbate), 0 hr
[12] = [^18F]PI-2620, 2 nM phosphate buffer and 10% ethanol, vitamin 50 mg/mL (control: sodium ascorbate), 2 hr
[13] = [^18F]PI-2620, 2 nM phosphate buffer and 10% ethanol, vitamin 50 mg/mL (control: sodium ascorbate), 4 hr
[14] = [^18F]PI-2620, 2 nM phosphate buffer and 10% ethanol, vitamin 50 mg/mL (control: sodium ascorbate), 6 hr
[15] = 2 nM phosphate buffer and 10% ethanol, vitamin 50 mg/mL (control: sodium ascorbate), 0 hr
[16] = 2 nM phosphate buffer and 10% ethanol, vitamin 50 mg/mL (control: sodium ascorbate), 2 hr
[17] = 2 nM phosphate buffer and 10% ethanol, vitamin 50 mg/mL (control: sodium ascorbate), 4 hr
[18] = 2 nM phosphate buffer and 10% ethanol, vitamin 50 mg/mL (control: sodium ascorbate), 6 hr

SMILES	Purity (radiochemical purity) [1, 3]	Purity (radiochemical purity) [1, 4]	Purity (radiochemical purity) [1, 5]	Purity (radiochemical purity) [1, 6]	PH (paper) [2, 7]	PH (paper) [2, 8]	PH (paper) [2, 9]	PH (paper) [2, 10]	Purity (radiochemical purity) [1, 11]	Purity (radiochemical purity) [1, 12]	Purity (radiochemical purity) [1, 13]	Purity (radiochemical purity) [1, 14]	PH (paper) [2, 15]	PH (paper) [2, 16]	PH (paper) [2, 17]	PH (paper) [2, 18]	further results
C/C1=C2/[N-][C@H]([C@H](CC(N)=O)[C@@]2(C)CCC(=O)NC[C@H](C)OP(=O)([O-])O[C@H]2[C@@H](O)[C@@H](n3cnc4cc(C)c(C)cc43)O[C@@H]2CO)[C@]2(C)N=C(/C(C)=C3N=C(/C=C4N=C1[C@@H](CCC(N)=O)C\4(C)C)[C@@H](CCC(N)=O)[C@]\3(C)CC(N)=O)[C@@H](CCC(N)=O)[C@]2(C)CC(N)=O.[Co+2] (stereo in doubt) [VB12, cobalamin]	98.33%	98.99%	98.7%	98.29%	6	7.5	6.5	6.5									
O=C1O[C@H]([C@@H](O)CO)C([O-])=C1O.[Na+] [Na ascorbate, sodium ascorbate]									99.05%	95.53%	93.77%	90.04%	6	6	6	6	Purity (radiochemical purity) ([1]; [^18F]PI-2620, 100 mg sodium ascorbate, 2 nM phosphate buffer, 10% ethanol, 0 hr): 99.05%; Purity (radiochemical purity) ([1]; [^18F]PI-2620, 100 mg sodium ascorbate, 2 nM phosphate buffer, 10% ethanol, 2 hr): 95.53%; Purity (radiochemical purity) ([1]; [^18F]PI-2620, 100 mg sodium ascorbate, 2 nM phosphate buffer, 10% ethanol, 4 hr): 93.77%; Purity (radiochemical purity) ([1]; [^18F]PI-2620, 100 mg sodium ascorbate, 2 nM phosphate buffer, 10% ethanol, 6 hr): 90.04%; Purity (radiochemical purity) ([1]; [^18F]PI-2620, 200 mg sodium ascorbate, 2 nM phosphate buffer, 10% ethanol, 0 hr): 99.47%; Purity (radiochemical purity) ([1]; [^18F]PI-2620, 200 mg sodium ascorbate, 2 nM phosphate buffer, 10% ethanol, 2 hr): 96.95%; Purity (radiochemical purity) ([1]; [^18F]PI-2620, 200 mg sodium ascorbate, 2 nM phosphate buffer, 10% ethanol, 4 hr): 95.25%; Purity (radiochemical purity) ([1]; [^18F]PI-2620, 200 mg sodium ascorbate, 2 nM phosphate buffer, 10% ethanol, 6 hr): 93.00%; PH (paper) ([2]; 100 mg sodium ascorbate, 2 nM phosphate buffer, 10% ethanol, 0 hr): 6; PH (paper) ([2]; 100 mg sodium ascorbate, 2 nM phosphate buffer, 10% ethanol, 2 hr): 6; PH (paper) ([2]; 100 mg sodium ascorbate, 2 nM phosphate buffer, 10% ethanol, 4 hr): 6; PH (paper) ([2]; 100 mg sodium ascorbate, 2 nM phosphate buffer, 10% ethanol, 6 hr): 6; PH (paper) ([2]; 200 mg sodium ascorbate, 2 nM phosphate buffer, 10% ethanol, 0 hr): 6; PH (paper) ([2]; 200 mg sodium ascorbate, 2 nM phosphate buffer, 10% ethanol, 2 hr): 6; PH (paper) ([2]; 200 mg sodium ascorbate, 2 nM phosphate buffer, 10% ethanol, 4 hr): 6; PH (paper) ([2]; 200 mg sodium ascorbate, 2 nM phosphate buffer, 10% ethanol, 6 hr): 6
Cc1ncc(C[n+]2csc(CCO)c2C)c(N)n1 [VB1, thiamine]	98.92%	98.97%	99.1%	98.94%	8	7	7	7	98.79%	98.46%	98.97%	98.94%	5	5.5	5.5	5.5	Purity (radiochemical purity) ([1]; [^18F]PI-2620, 2 nM phosphate buffer and 10% ethanol, vitamin 0.78 mg/mL, 0 hr): 99.66%; Purity (radiochemical purity) ([1]; [^18F]PI-2620, 2 nM phosphate buffer and 10% ethanol, vitamin 0.78 mg/mL, 2 hr): 99.21%; Purity (radiochemical purity) ([1]; [^18F]PI-2620, 2 nM phosphate buffer and 10% ethanol, vitamin 0.78 mg/mL, 4 hr): 97.63%; Purity (radiochemical purity) ([1]; [^18F]PI-2620, 2 nM phosphate buffer and 10% ethanol, vitamin 0.78 mg/mL, 6 hr): 97.12%; PH (paper) ([2]; 2 nM phosphate buffer and 10% ethanol, vitamin 0.78 mg/mL, 0 hr): 6; PH (paper) ([2]; 2 nM phosphate buffer and 10% ethanol, vitamin 0.78 mg/mL, 2 hr): 6; PH (paper) ([2]; 2 nM phosphate buffer and 10% ethanol, vitamin 0.78 mg/mL, 4 hr): 6; PH (paper) ([2]; 2 nM phosphate buffer and 10% ethanol, vitamin 0.78 mg/mL, 6 hr): 6
Nc1ncnc2c1ncn2[C@@H]1O[C@H](COP(=O)(O)O)[C@@H](O)[C@H]1O [VB8, adenosine phosphate]	98.92%	99.14%	98.8%	98.2%	6	6	6	6	98.06%	95.43%	92.46%	87.76%	6	6	6	6	
Nc1ccc(C(=O)O)cc1 [VB10, 4-aminobenzoic acid]	99.15%	98.71%	98.83%	98.73%	7	6	7	7	98.01%	94.44%	91.25%	86.09%	6	6	6	6	
[18F]c1cc(-c2ccc3c(n2)[nH]c2ccncc23)ccn1 [[^18F]PI-2620]																	Purity (radiochemical purity) ([1]; [^18F]PI-2620 under three formulation conditions (ethanol with or without phosphate buffer), 6 hr): not decomposed at a high temperature
